Measurements published in patent publication US7705188B2 (Arizona Board of Regents, a body corporate of the State of …, priority 2002, dated 2010).
In brackets after ≈: the same amount, converted by molar mass. Like-named read-outs stand apart in the source and are kept apart here.

Experiments:
NCI-H460 = experiment: Cytotoxicity, lung-NSC NCI-H460; format: cell-based, human; conditions: for GI50: Homo sapiens
[1] = system: P-388 and human tumor cell lines; experiment: Cytotoxicity, summary over P-388 and human tumor cell lines; format: cell-based
BXPC-3 = experiment: Cytotoxicity, pancreas-a BXPC-3; format: cell-based, human; conditions: for GI50: Homo sapiens, BXPC-3, BXPC-3
SF-268 = experiment: Cytotoxicity, CNS SF-268; format: cell-based, human; conditions: for GI50: Homo sapiens
MCF-7 = experiment: Cytotoxicity, breast MCF-7; format: cell-based, human; conditions: for GI50: Homo sapiens, MCF7
DU-145 = experiment: Cytotoxicity, prostate DU-145; format: cell-based, human; conditions: for GI50: Homo sapiens, DU-145, DU-145
KM201.2 = experiment: Cytotoxicity, colon KM201.2; format: cell-based, human; conditions: for GI50: Homo sapiens
tubulin [2] = experiment: Inhibition of [3H]colchicine binding to tubulin
Procedure: (§1) Extent of assembly after 20 min at 30° C. was the parameter measured. The colchicine binding assay was performed as earlier reported.^27 The tubulin concentration was 1.0 μM, the [3H] colchicine concentration was 5.0 μM, and the potential inhibitor concentrations were as indicated. Binding of colchicine was measured following a 10 min incubation at 37° C.

tubulin [3] = experiment: Inhibition of tubulin polymerization; format: biochemical; conditions: tubulin 10 μM; extent of assembly after 20 min at 30° C.; read-out: Inhibition of tubulin Polymerization IC50 (μM) ± SD
Procedure: as §1

Micrococcus luteus = experiment: Antimicrobial broth microdilution, MIC; format: cell-based; conditions: read-out: Minimum inhibitory concentration
Excerpt: (§2) Stilbene production has been correlated with the resistance of grape leaves to fungal infection.

Streptococcus pneumoniae = experiment: Antimicrobial broth microdilution, MIC; format: cell-based; conditions: read-out: Minimum inhibitory concentration
Excerpt: as §2

Enterococcus faecalis = experiment: Antimicrobial broth microdilution, MIC; format: cell-based; conditions: read-out: Minimum inhibitory concentration
Excerpt: as §2

Enterobacter cloacae = experiment: Antimicrobial broth microdilution, MIC; format: cell-based; conditions: read-out: Minimum inhibitory concentration
Excerpt: as §2

[4] = system: Stenotrophomonas maltophilia; experiment: Antimicrobial broth microdilution, MIC; format: cell-based; conditions: read-out: Minimum inhibitory concentration
Excerpt: as §2

Escherichla coli = experiment: Antimicrobial broth microdilution, MIC; format: cell-based; conditions: Escherichla coli; read-out: Minimum inhibitory concentration
Excerpt: as §2

Candida albicans = experiment: Antimicrobial broth microdilution, MIC; format: cell-based; conditions: read-out: Minimum inhibitory concentration
Excerpt: as §2

Staphylococcus aureus = experiment: Antimicrobial broth microdilution, MIC; format: cell-based; conditions: read-out: Minimum inhibitory concentration
Excerpt: as §2

Neisseria gonorrhoeae = experiment: Antimicrobial broth microdilution, MIC; format: cell-based; conditions: Neisseria gonorrhoeae; read-out: Minimum inhibitory concentration
Excerpt: as §2

Cryptococcus neoformans = experiment: Antimicrobial broth microdilution, MIC; format: cell-based; conditions: read-out: Minimum inhibitory concentration
Excerpt: as §2

[5] = NCI-H460, NCI-H460, read-out: Lung-NSC NCI-H460 GI50
[6] = SF-268, SF-268, read-out: CNS SF-268 GI50
[7] = KM201.2, read-out: Colon KM201.2 GI50
[8] = NCI-H460, read-out: Lung-NSC NCI-H460 GI50, NCI-H460

Oc1ccc(/C=C\c2cc(O)cc(O)c2)cc1 [Compound 1b, cis-Resveratrol]
GI50 (NCI-H460; [5]): 13.2 µg/mL (≈ 57.8 µM) | Cytotoxicity against cancer cell lines, comparison in words [1]: slightly less inhibitory effects on the cancer cell lines tested than did the trans-isomer | GI50 (BXPC-3): 15.5 µg/mL (≈ 67.9 µM) | GI50 (SF-268; [6]): 5 µg/mL (≈ 21.9 µM) | GI50 (MCF-7): 14.8 µg/mL (≈ 64.8 µM) | GI50 (DU-145): 10.2 µg/mL (≈ 44.7 µM) | GI50 (KM201.2; [7]): 22 µg/mL (≈ 96.4 µM)

COc1ccc(C(=O)c2cc(OC)c(OC)c(OC)c2)cc1O [Compound 2c, phenstatin, reference compound]
GI50 (NCI-H460; [8]): 0.0057 µg/mL (≈ 0.0179 µM) | GI50 (SF-268; SF-268, read-out: CNS SF-268 GI50, SF-268): 0.052 µg/mL (≈ 0.163 µM) | Inhibition of colchicine binding, in words (tubulin [2]): less potent than combretastatin A-4 (2a) | Inhibition of colchicine binding % Inhibition, 2 μM inhibitor (tubulin [2]; 2 μM inhibitor, tubulin 1.0 μM, [3H]colchicine 5.0 μM, 10 min at 37° C.): 73 ± 1% | Inhibition of colchicine binding % Inhibition, 5 μM inhibitor (tubulin [2]; 5 μM inhibitor, tubulin 1.0 μM, [3H]colchicine 5.0 μM, 10 min at 37° C.): 85 ± 2% | IC50 (tubulin [3]): 1.1 ± 0.1 µM | GI50 (KM201.2; read-out: Colon KM201.2 GI50, KM201.2): 0.04 µg/mL (≈ 0.126 µM)

COc1ccc(C=Cc2cc(OC)cc(OC)c2)cc1 [Compound 4b, 3,4′,5-trimethoxystilbene]
Lung-NSC NCI-H460 GI50 (NCI-H460): 0.62 µg/mL | Cytotoxicity against cancer cell lines, comparison in words [1]: superior in activity to resveratrol (1) | Pancreas-a BXPC-3 GI50 (BXPC-3): 0.35 µg/mL | CNS SF-268 GI50 (SF-268): 0.56 µg/mL | Prostate DU-145 GI50 (DU-145): 1.5 µg/mL

COc1cc(/C=C/c2ccc(O)cc2)cc(OC)c1 [Compound 14d, (E)-3,5-dimethoxy-4′-hydroxy-stilbene]
GI50 (NCI-H460; [5]): 2.7 µg/mL (≈ 10.5 µM) | Cytotoxicity against cancer cell lines, comparison in words [1]: slightly less active than their cis counterparts | GI50 (BXPC-3): 6.5 µg/mL (≈ 25.4 µM) | GI50 (SF-268; [6]): 4.3 µg/mL (≈ 16.8 µM) | GI50 (MCF-7): 2.3 µg/mL (≈ 8.97 µM) | GI50 (DU-145): 2.7 µg/mL (≈ 10.5 µM) | GI50 (KM201.2; [7]): 3.4 µg/mL (≈ 13.3 µM)

COc1ccc(C=Cc2cc(O)cc(OC)c2)cc1 [Compound 14g, 3-hydroxy-4′,5-dimethoxystilbene]
Cytotoxicity against cancer cell lines, comparison in words [1]: comparable to that of resveratrol

COc1ccc(C=Cc2cc(O)cc(OC)c2)cc1 [Compound 14h, 3-hydroxy-4′,5-dimethoxystilbene]
Cytotoxicity against cancer cell lines, comparison in words [1]: slightly less active than their cis counterparts | MIC (Micrococcus luteus): 16 to 64 µg/mL (≈ 62.4 to 250 µM) | MIC (Streptococcus pneumoniae): > 64 µg/mL | MIC (Enterococcus faecalis; first line (r12)): > 64 µg/mL | MIC (Enterococcus faecalis; second line (r15)): > 64 µg/mL | MIC (Enterobacter cloacae): > 64 µg/mL | MIC [4]: > 64 µg/mL | MIC (Escherichla coli): > 64 µg/mL | MIC (Candida albicans): > 64 µg/mL | MIC (Staphylococcus aureus): > 64 µg/mL

COc1ccc(C=Cc2cc(O)cc(O)c2)cc1 [Compound 14k, 3,5-dihydroxy-4′-methoxy-stilbene]
GI50 (NCI-H460; [8]): 6.4 µg/mL (≈ 26.4 µM) | Cytotoxicity against cancer cell lines, comparison in words [1]: comparable to that of resveratrol | Pancreas-a BXPC-3 GI50 (BXPC-3): 14.1 µg/mL | CNS SF-268 GI50 (SF-268): 15.6 µg/mL | MIC (Micrococcus luteus): > 64 µg/mL | MIC (Streptococcus pneumoniae): > 64 µg/mL | MIC (Neisseria gonorrhoeae): 16 µg/mL (≈ 66 µM) | MIC (Enterococcus faecalis; first line (r12)): > 64 µg/mL | MIC (Enterococcus faecalis; second line (r15)): > 64 µg/mL | MIC (Enterobacter cloacae): > 64 µg/mL | MIC (Cryptococcus neoformans): > 64 µg/mL | MIC [4]: > 64 µg/mL | MIC (Escherichla coli): > 64 µg/mL | MIC (Candida albicans): > 64 µg/mL | MIC (Staphylococcus aureus): > 64 µg/mL | Breast MCF-7 GI50 (MCF-7): 12.7 µg/mL | Prostate DU-145 GI50 (DU-145): 10.6 µg/mL | Colon KM201.2 GI50 (KM201.2; KM201.2): 17.7 µg/mL

COc1ccc(C=Cc2cc(O)cc(O)c2)cc1 [Compound 14l, 3,5-dihydroxy-4′-methoxy-stilbene]
Lung-NSC NCI-H460 GI50 (NCI-H460): 6.8 µg/mL | Cytotoxicity against cancer cell lines, comparison in words [1]: slightly less active than their cis counterparts | Pancreas-a BXPC-3 GI50 (BXPC-3): 6.3 µg/mL | CNS SF-268 GI50 (SF-268): 3.1 µg/mL | Breast MCF-7 GI50 (MCF-7): 3.4 µg/mL | Prostate DU-145 GI50 (DU-145): 2.7 µg/mL | Colon KM201.2 GI50 (KM201.2; KM201.2): 3.8 µg/mL
